We go through two molecules from patent US12054501B2, “Compositions and methods for inhibiting arginase activity” (Precision Pharmaceuticals Inc., priority 2016, dated 2024).

SMILES strings stand for the structures. Entries after “also recorded” stand apart in the source; their conditions may differ.

A short description of data set [1]: Moisture sorption/desorption isotherm (TGA study, humidity uptake). It counts as physicochemical. On the procedure: In the TGA study, a weighted amount of compound 10e was treated with increasing amounts of water vapor (increased humidity) and the impact of humidity on the weight of the sample was evaluated.
Data set [2] deals with Lewis Lung Carcinoma cells. As to the kind of experiment: Lewis Lung Carcinoma efficacy study (tumor volume over time). It counts as in vivo. The settings on record: single agent, dosed orally twice daily at 50, 100 or 200 mg/kg; C57BL/6 mice implanted with Lewis Lung Carcinoma cells; relative to control. As to the method: Female C57.Bl/6 mice (n=40) were implanted subcutaneously with 1×10^6 Lewis Lung Carcinoma cells suspended in PBS. The day following implantation, mice were randomized into 4 groups of n=10 mice to receive the following treatments dosed orally twice daily until study end: 1) Vehicle (water); 2) Compound 10 at 50 mg/kg formulated in water; 3) Compound 10 at 100 mg/kg formulated in water; or 4) Compound 10 at 200 mg/kg formulated in water. Tumors were measured three times per week with digital calipers and tumor volumes calculated with the following formula: tumor volume (mm^3)=(a×b^2/2) where ‘b’ is the smallest diameter and ‘a’ is the largest perpendicular diameter. ***P-value <0.001, ****P-value <0.0001 (Two-sided T-test).

The nature of data set [3]: Hydrolysis of the ethanolate in water (NMR in D2O, HPLC-MS). The data set is classed as physicochemical. The settings on record: hydrolysis to the open free boronic acid form, compound 10. On the procedure:
The rapid conversion of compound 10e to compound 10 in water was confirmed by the similarity of a spectrum of 10e in D2O to a spectrum of 10 in D2O. When a sample of compound 10e was dissolved in D2O and the spectra immediately recorded (elapsed time <5 minutes), the spectra observed is identical to a spectra of compound 10 (the free boronic acid) plus ethanol (1:1 ratio). The spectrum of 10e in D2O was the same at 5 minutes and one hour after sample preparation, indicating the transformation was rapid and complete after a few minutes.
The NMR spectra (D2O) labeled A is compound 10 (free base) prepared from 11 as described in Example 2. The NMR spectra (D2O) labeled B is an analytical sample of compound 10e prepared as described above. The NMR spectra (D2O) labeled C is the sample from spectra B that has been lyophilized and redissolved in D2O.
Upon dissolution in 1:1 water/acetonitrile and immediate injection into an HPLC system, only a single peak is observed. The mass of this peak is consistent with compound 10.

Take `C[C@H](N)C(=O)N1C[C@H](CCCB(O)O)[C@](N)(C(=O)O)C1` [Compound 10]: the “hysteresis of sorption and desorption isotherms” value in data set [1] is reported as “minimal hysteresis”. Further, the hygroscopicity result in data set [1] (as humidity is increased) is “absorbs increasing amounts of water as the humidity increases; also recorded: hygroscopic”. Also, in data set [1] (at 90% relative humidity (RH)), the observed moisture uptake result was “over 70%”. Also, the “tumor growth (tumor volume over time)” value in data set [2] is reported as “slows tumor growth relative to control”.

As to `CCOB1CCC[C@H]2CN(C(=O)[C@H](C)N)C[C@@]2(N)C(=O)O1` [Compound 10e, (6aS,9aR)-8-(L-alanyl)-9a-amino-3-ethoxyoctahydro-[1,2]oxaborocino[6,7-c]pyrrol-1(3H)-one], the “stability under physiological conditions or any other aqueous conditions” value in data set [3] is on record as “rapidly hydrolyzes”.
